Data published in ChEMBL document CHEMBL4828709, “Discovery of 2,4-pyrimidinediamine derivatives as potent dual inhibitors of ALK and HDAC” (Eur J Med Chem, 2021).

Assays:
[1] = molecular target: T1, Histone deacetylase 1 (Homo sapiens, UniProt Q13547); conditions: Sf9, dose 10.0 nM, time 15.0 min
[2] = molecular target: T2, ALK tyrosine kinase receptor (Homo sapiens, UniProt Q9UM73); assay: Inhibition of ALK (unknown origin) at 100 nM preincubated for 10 mins followed by addition of substrate and ATP for 25 mins by caliper EZ reader method; conditions: time 35.0 min
T2 sequence (Q9UM73 19-1620 limits assumed): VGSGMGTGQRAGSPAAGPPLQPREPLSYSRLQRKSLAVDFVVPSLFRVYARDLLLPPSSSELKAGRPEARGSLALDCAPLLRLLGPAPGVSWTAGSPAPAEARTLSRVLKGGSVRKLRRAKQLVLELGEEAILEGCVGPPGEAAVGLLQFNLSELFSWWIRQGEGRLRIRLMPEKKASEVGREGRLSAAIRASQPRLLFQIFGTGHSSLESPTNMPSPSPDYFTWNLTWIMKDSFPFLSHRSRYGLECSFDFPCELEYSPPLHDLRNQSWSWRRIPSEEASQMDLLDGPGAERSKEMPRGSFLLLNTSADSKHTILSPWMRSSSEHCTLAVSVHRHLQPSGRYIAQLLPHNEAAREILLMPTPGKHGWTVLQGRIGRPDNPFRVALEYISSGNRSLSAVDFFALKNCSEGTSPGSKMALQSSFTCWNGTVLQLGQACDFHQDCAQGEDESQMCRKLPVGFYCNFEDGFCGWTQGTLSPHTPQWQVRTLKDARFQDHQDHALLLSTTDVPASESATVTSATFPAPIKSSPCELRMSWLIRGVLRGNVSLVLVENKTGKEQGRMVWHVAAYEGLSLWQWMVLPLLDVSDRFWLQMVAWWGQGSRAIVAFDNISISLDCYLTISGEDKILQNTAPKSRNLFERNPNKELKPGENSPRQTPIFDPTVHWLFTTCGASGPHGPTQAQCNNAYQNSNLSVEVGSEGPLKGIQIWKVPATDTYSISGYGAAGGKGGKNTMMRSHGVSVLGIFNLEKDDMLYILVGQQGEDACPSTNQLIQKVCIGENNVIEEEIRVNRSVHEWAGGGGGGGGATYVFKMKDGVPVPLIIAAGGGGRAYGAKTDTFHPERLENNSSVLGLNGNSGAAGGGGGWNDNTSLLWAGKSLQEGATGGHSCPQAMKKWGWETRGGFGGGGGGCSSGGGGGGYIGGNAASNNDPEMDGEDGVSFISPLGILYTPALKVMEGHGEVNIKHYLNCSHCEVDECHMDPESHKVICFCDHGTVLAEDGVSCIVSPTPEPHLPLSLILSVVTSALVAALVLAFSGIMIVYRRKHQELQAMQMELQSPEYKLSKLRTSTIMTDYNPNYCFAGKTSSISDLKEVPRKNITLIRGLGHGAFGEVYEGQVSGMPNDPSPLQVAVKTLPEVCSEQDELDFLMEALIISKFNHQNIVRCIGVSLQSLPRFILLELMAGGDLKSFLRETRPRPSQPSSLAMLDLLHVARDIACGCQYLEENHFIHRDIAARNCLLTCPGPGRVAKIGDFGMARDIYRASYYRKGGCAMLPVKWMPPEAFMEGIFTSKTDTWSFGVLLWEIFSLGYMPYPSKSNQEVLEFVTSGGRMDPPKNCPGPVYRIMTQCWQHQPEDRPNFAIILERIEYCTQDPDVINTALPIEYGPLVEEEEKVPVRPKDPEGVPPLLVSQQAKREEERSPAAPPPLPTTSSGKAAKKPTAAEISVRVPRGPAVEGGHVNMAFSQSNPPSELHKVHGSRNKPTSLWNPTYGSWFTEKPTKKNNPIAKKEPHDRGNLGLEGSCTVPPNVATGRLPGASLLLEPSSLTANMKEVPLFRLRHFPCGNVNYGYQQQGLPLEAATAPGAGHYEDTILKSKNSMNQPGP

[3] = molecular target: T1, Histone deacetylase 1; conditions: Sf9, dose 100.0 nM, time 15.0 min
[4] = molecular target: T2, ALK tyrosine kinase receptor; assay: Inhibition of ALK (unknown origin) at 10 nM preincubated for 10 mins followed by addition of substrate and ATP for 25 mins by caliper EZ reader method; conditions: time 35.0 min

T1 sequence (Q13547 whole entry): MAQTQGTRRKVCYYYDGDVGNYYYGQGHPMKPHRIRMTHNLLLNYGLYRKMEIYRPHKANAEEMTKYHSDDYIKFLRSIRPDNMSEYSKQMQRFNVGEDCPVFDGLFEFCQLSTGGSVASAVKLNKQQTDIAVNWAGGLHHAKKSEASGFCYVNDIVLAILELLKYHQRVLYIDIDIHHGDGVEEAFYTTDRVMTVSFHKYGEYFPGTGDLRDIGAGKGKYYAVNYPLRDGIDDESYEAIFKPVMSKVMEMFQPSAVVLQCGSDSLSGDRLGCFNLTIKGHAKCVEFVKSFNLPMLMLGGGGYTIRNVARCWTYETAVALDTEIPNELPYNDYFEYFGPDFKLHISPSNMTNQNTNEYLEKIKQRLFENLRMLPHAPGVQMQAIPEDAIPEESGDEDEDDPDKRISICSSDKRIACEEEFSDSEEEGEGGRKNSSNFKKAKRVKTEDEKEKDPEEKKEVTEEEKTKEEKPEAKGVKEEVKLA

| inhibition [1] [%] | inhibition [2] [%] | inhibition [3] [%] | inhibition [4] [%] | SMILES |
| --- | --- | --- | --- | --- |
| 45 | 98.5 | 86 | 97.3 | COc1cc(C(=O)NCCCCCC(=O)NO)ccc1Nc1ncc(Cl)c(Nc2ccccc2S(=O)(=O)C(C)C)n1 |
| 55 | 98.1 | 101 | 89.4 | CC(C)S(=O)(=O)c1ccccc1Nc1nc(Nc2ccc(C(=O)NCCCCCC(=O)NO)cc2)ncc1Cl |
| 35 | 97.3 | 84 | 83.2 | CC(C)S(=O)(=O)c1ccccc1Nc1nc(Nc2cccc(C(=O)NCCCCCC(=O)NO)c2)ncc1Cl |
| -1 | 99.1 | 4 | 81 | CC(C)S(=O)(=O)c1ccccc1Nc1nc(Nc2cccc(C(=O)NCCC(=O)NO)c2)ncc1Cl |
| 55 | 98 | 86 | 89.4 | CC(C)S(=O)(=O)c1ccccc1Nc1nc(Nc2cccc(NC(=O)CCCCCC(=O)NO)c2)ncc1Cl |
| 4 | 98 | 44 | 85.7 | CC(C)S(=O)(=O)c1ccccc1Nc1nc(Nc2cccc(C(=O)NCCCC(=O)NO)c2)ncc1Cl |
| 8 | 98.5 | 39 | 76.9 | Cc1ccc(Nc2ncc(Cl)c(Nc3ccccc3S(=O)(=O)C(C)C)n2)cc1NC(=O)CCCCC(=O)NO |
| 68 | 94.9 | 91 | 60.4 | COc1cnc(Nc2ccc(NC(=O)CCCCCCC(=O)NO)cc2)nc1Nc1ccccc1S(=O)(=O)C(C)C |
| 52 | 98.8 | 90 | 86.5 | CC(C)S(=O)(=O)c1ccccc1Nc1nc(Nc2ccc(NC(=O)CCCCCC(=O)NO)cc2)ncc1Cl |
| 10 | 98 | 41 | 87.2 | CC(C)S(=O)(=O)c1ccccc1Nc1nc(Nc2cccc(NC(=O)CCCCC(=O)NO)c2)ncc1Cl |
| -2 | 97.9 | 4 | 91.2 | CC(C)S(=O)(=O)c1ccccc1Nc1nc(Nc2ccc(C(=O)NCCCC(=O)NO)cc2)ncc1Cl |
| 23 | 97.7 | 65 | 81 | CC(C)S(=O)(=O)c1ccccc1Nc1nc(Nc2cccc(C(=O)NCCCCC(=O)NO)c2)ncc1Cl |
| 7 | 98.5 | 49 | 86.8 | Cc1c(Nc2ncc(Cl)c(Nc3ccccc3S(=O)(=O)C(C)C)n2)cccc1C(=O)NCCCCCC(=O)NO |
| -1 | 97.3 | 3 | 86.7 | CC(C)S(=O)(=O)c1ccccc1Nc1nc(Nc2ccc(C(=O)NCCC(=O)NO)cc2)ncc1Cl |
| 35 | 101 | 78 | 98.1 | Cc1cc(Nc2ncc(Cl)c(Nc3ccccc3S(=O)(=O)C(C)C)n2)ccc1C(=O)NCCCCCCC(=O)NO |
| -8 | 99 | 20 | 84.7 | CC(C)S(=O)(=O)c1ccccc1Nc1nc(Nc2ccc(NC(=O)CCCCC(=O)NO)cc2)ncc1Cl |
| 24 | 100 | 67 | 70.3 | CC(C)S(=O)(=O)c1ccccc1Nc1nc(Nc2ccc(C(=O)NCCCCCCC(=O)NO)c(Cl)c2)ncc1Cl |
| 48 | 102 | 93 | 97.8 | Cc1cc(Nc2ncc(Cl)c(Nc3ccccc3S(=O)(=O)C(C)C)n2)ccc1C(=O)NCCCCCC(=O)NO |
| 58 | 97.3 | 96 | 93.1 | Cc1cc(C(=O)NCCCCCC(=O)NO)ccc1Nc1ncc(Cl)c(Nc2ccccc2S(=O)(=O)C(C)C)n1 |
| 41 | 96.6 | 84 | 82.6 | CC(C)S(=O)(=O)c1ccccc1Nc1nc(Nc2cccc(C(=O)NCCCCCCC(=O)NO)c2)ncc1Cl |
| 8 | 98.8 | 31 | 85.2 | CC(C)S(=O)(=O)c1ccccc1Nc1nc(Nc2ccc(C(=O)NCCCCC(=O)NO)cc2)ncc1Cl |
| 45 | 97.8 | 93 | 87.7 | CC(C)S(=O)(=O)c1ccccc1Nc1nc(Nc2ccc(C(=O)NCCCCCC(=O)NO)c(Cl)c2)ncc1Cl |
| 26 | 101 | 74 | 99 | COc1cc(Nc2ncc(Cl)c(Nc3ccccc3S(=O)(=O)C(C)C)n2)ccc1C(=O)NCCCCCC(=O)NO |

The next lines start with the compound.

| SMILES | inhibition [1] [%] | inhibition [2] [%] | inhibition [3] [%] | inhibition [4] [%] |
| --- | --- | --- | --- | --- |
| CC(C)S(=O)(=O)c1ccccc1Nc1nc(Nc2ccc(NC(=O)CC(=O)NO)cc2)ncc1Cl | -10 | 98.2 | -7 | 92.1 |
| CC(C)S(=O)(=O)c1ccccc1Nc1nc(Nc2ccc(/C=C/C(=O)NO)cc2)ncc1Cl | 0 | 101 | 3 | 71.6 |
| COc1ccc(Nc2nc(Nc3ccc(NC(=O)CCCCCCC(=O)NO)cc3)ncc2Cl)cc1OC | 65 | 17.6 | 94 | 3.1 |
| Cc1ccccc1Nc1nc(Nc2ccc(NC(=O)CCCCCCC(=O)NO)cc2)ncc1Cl | 91 | 27.8 | 99 | 1.2 |
| CC(C)S(=O)(=O)c1ccccc1Nc1nc(Nc2cccc(NC(=O)CCCC(=O)NO)c2)ncc1Cl | 38 | 98.1 | 83 | 87 |
| COc1ccc(C)c(Nc2nc(Nc3ccc(NC(=O)CCCCCCC(=O)NO)cc3)ncc2Cl)c1 |  | 4.9 |  | -0.7 |
| O=C(CCCCCCC(=O)Nc1ccc(Nc2ncc(Cl)c(Nc3ccccc3Cl)n2)cc1)NO | 67 | 21.2 | 90 | 3.1 |
| CC(C)S(=O)(=O)c1ccccc1Nc1nc(Nc2ccc(NC(=O)CCC(=O)NO)cc2)ncc1Cl | -2 |  |  |  |
| CC(C)S(=O)(=O)c1ccccc1Nc1nc(Nc2ccc(NC(=O)CCCCCCC(=O)NO)cc2)ncc1F | 70 | 96 | 94 | 66.3 |
| Cc1ccc(Nc2nc(Nc3ccc(NC(=O)CCCCCCC(=O)NO)cc3)ncc2Cl)cc1 | 86 | 30.1 | 97 | 7.2 |
| Cc1cnc(Nc2ccc(NC(=O)CCCCCCC(=O)NO)cc2)nc1Nc1ccccc1S(=O)(=O)C(C)C | 63 | 97.9 | 93 | 83.5 |
| CC(C)S(=O)(=O)c1ccccc1Nc1nc(Nc2cccc(C(=O)NO)c2)ncc1Cl | -3 |  |  |  |
| Cc1cccc(Nc2nc(Nc3ccc(NC(=O)CCCCCCC(=O)NO)cc3)ncc2Cl)c1 |  | 4.9 |  | 0.2 |
| O=C(CCCCCCC(=O)Nc1ccc(Nc2ncc(Cl)c(Nc3ccccc3Br)n2)cc1)NO | 67 | 25 | 88 | 0.2 |
| O=C(CCCCCCC(=O)Nc1ccc(Nc2ncc(Cl)c(Nc3ccccc3)n2)cc1)NO | 84 | 36.9 | 99 | 4.9 |
| CC(C)S(=O)(=O)c1ccccc1Nc1nc(Nc2ccc(C(=O)NO)cc2)ncc1Cl | 0.1 |  |  | 81.1 |
| COc1cccc(Nc2nc(Nc3ccc(NC(=O)CCCCCCC(=O)NO)cc3)ncc2Cl)c1 | 83 | 20 | 97 | 1.2 |
| CC(C)S(=O)(=O)c1ccccc1Nc1nc(Nc2ccc(NC(=O)CCCC(=O)NO)cc2)ncc1Cl | 4 | 98.5 | 17 | 87.6 |
| COc1cccc(Nc2nc(Nc3ccc(NC(=O)CCCCCCC(=O)NO)cc3)ncc2C(F)(F)F)c1 | 56 | 7.6 | 89 | 4.9 |
